Laboratory results reported in US20070299110A1, “Novel Tetrazole Derivatives as Positive Allosteric Modulators of Metabotropic Glutamate” (priority 2004, published 2007).

Legend:
Male C57BL6/j mice = experiment: Amphetamine-induced locomotor activity in mice (amphetamine model of schizophrenia); format: in vivo; details: 30 mg/kg ip, 30 minutes before amphetamine sulphate 3.0 mg/kg s.c., distance traveled measured for 60 minutes, p<0.01 vs vehicle-amphetamine
Text: Amphetamine-induced increases in locomotor ambulation are well known and are widely used as a model of the positive symptoms of schizophrenia. This model is based on evidence that amphetamine increases motor behaviors and can induce a psychotic state in humans (Yui et al. (2000) Ann NY Acad Sci 914:1-12). Further, it is well known that amphetamine-induced increases in locomotor activity are blocked by antipsychotics drugs that are effective in the treatment of schizophrenia (Ant (1995) Eur J Pharmacol 283:55-62). […]
Assessment of locomotor (ambulatory) activity: The effects of compounds on amphetamine-induced locomotor activation in mice were tested. […] Locomotor activity (ambulations) was monitored by a videotracking system (VideoTrack, Viewpoint, Champagne au Mont d'Or, France) that recorded the ambulatory movements of mice. […] Mice were placed into the locomotor boxes immediately after the amphetamine injection and their locomotor activity, defined as the distance traveled in centimeters (cm), was measured for 60 minutes. […]
Statistical analyses: Statistical analyses were performed using GraphPad PRISM statistical software (GraphPad, San Diego, Calif., USA). Data were analyzed using an unpaired t-test. […]

Row | SMILES | melting point [°C] | increase in locomotor activity induced by amphetamine (Male C57BL6/j mice; listed as #1) | increase in locomotor activity induced by amphetamine (Male C57BL6/j mice; listed as example 1)
1 | O=C(c1ccc(F)cc1)N1CCC[C@H](n2nnc(-c3ccc(F)cc3)n2)C1 [Example 1, (4-Fluoro-phenyl)-{(S)-3-[5-(4-fluoro-phenyl)-tetrazol-2-yl]-piperidin-1-yl}-methanone] | 109 to 110 | significantly attenuate | significantly attenuated
2 | O=C(c1ccc(F)cc1)N1CCCC(n2nnc(-c3ccc(F)cc3)n2)C1 (stereo not shown) [Example 2, (4-Fluoro-phenyl)-{3-[5-(4-fluoro-phenyl)-tetrazol-2-yl]-piperidin-1-yl}-methanone] | 137 to 139 | – | –
3 | O=C(c1ccc(F)nc1)N1CCC[C@H](n2nnc(-c3ccc(F)cc3)n2)C1 [Example 21, {(S)-3-[5-(4-Fluoro-phenyl)-tetrazol-2-yl]-piperidin-1-yl}-(6-fluoro-pyridin-3-yl)-methanone] | 109 to 110 | – | –
4 | O=C(c1ccc(F)c(F)c1)N1CCC[C@H](n2nnc(-c3ccc(F)cc3)n2)C1 [Example 24, (3,4-Difluoro-phenyl)-{(S)-3-[5-(4-fluoro-phenyl)-tetrazol-2-yl]-piperidin-1-yl}-methanone] | 123 to 128 | – | –
5 | O=C(c1ccc(F)cc1F)N1CCC[C@H](n2nnc(-c3ccc(F)cc3)n2)C1 [Example 25, (2,4-Difluoro-phenyl)-{(S)-3-[5-(4-fluoro-phenyl)-tetrazol-2-yl]-piperidin-1-yl}-methanone] | 65 to 68 | – | –
